Source: patent US20240217946A1, “ANTIDEPRESSANT AND ANXIOLYTIC SUBSTITUTED CINNAMAMIDE COMPOUND” (TASLY PHARMACEUTICAL GROUP CO., LTD., priority 2021, published 2024)
Entries after “also recorded” stand apart in the source; their conditions may differ. Counter-ions that a name gives are not always drawn. Marks after values point to notes of the source that are not given here.

Tests used:
[1] = system: C57 BL/6J male mice; experiment: Forced swimming experiment in mice; assay type: in vivo; details: 24 h after a single i.p. administration; fluoxetine 10 mg/kg, esketamine 10 mg/kg, M2 3-30 mg/kg
From the text: 1) Forced Swimming Experiment: Also Known as Despair Experiment, an Experiment Usually Used to Test Depression-Like Behavior of Mice
• Animal: C57 BL/6J male mice (18-20 g)
Intraperitoneal injection (i.p)

[2] = system: ICR mice; experiment: Elevated plus maze experiment in mice, single administration; assay type: in vivo; details: for OE % / OT %: 30 min after single administration
Method: 50 male ICR mice were randomly divided into 5 groups (a solvent control group, estazolam group, M2 high dosage group, M2 medium dosage group, M2 low dosage group), with 10 mice in each group. The compound M2 high, medium and low dosage groups were intragastrically administered at 20 mg/kg. 10 mg/kg and 5 mg/kg, respectively; the positive drug estazolam was intragastrically administered at 2.5 mg/kg; and the solvent control group was gavaged with an equal volume of solvent. Behavior test was performed in each group 30 min after single administration. The experiments were required to be conducted between 8:00 am and […], and all animals entered the test laboratory on the previous day.
The laboratory was dimly lit (with the lowest brightness that can distinguish the subtle activities of mice at a distance of 1.5 m) and the brightness was kept constant, with a room temperature of about 20° C., and kept quiet. Before the maze test, each mouse was placed in a 35 cm*10 cm*5 cm plastic box and left to explore freely for 5 min and then quickly placed at the central platform of an elevated plus maze, with its head facing one of the open arms, and the following indexes were recorded upon release. Each mouse was tested for 5 min. Observers observed and recorded animal activities at a distance of 1.5 m. At intervals, the maze was wiped with a wet cloth to remove feces, and then wiped with a dry cloth before a next mouse was tested.
• (1) The number of open arm entries (OE): the number of entries into any open arm, based on the fact that all four claws of the mouse entered the arm, and a complete exit of one claw from the arm indicated the completion of the entry activity; • (2) open arm time (OT): the time of entering an open arm, with the unit of seconds; • (3) the number of close arm entries (CE): the number of entries into any close arm, based on the fact that all four claws of the mouse entered the arm; • (4) close arm time (CT): the time of entering a close arm, with the unit of seconds; • (5) percentage of open arm time: OT %=OT/(OT+CT)*100%; and • (6) percentage of open arm entries: OE %=OE/(OE+CE)*100%.
70 male ICR mice were randomly divided into 7 groups (a solvent control group, estazolam group, compound M2 group, compound II-3 group, compound II-4 group, compound II-5 group, and compound II-10 group), with 10 mice in each group. The dosage of M2 and its four structurally similar compounds was determined as 20 mg/kg according to the experimental results of 3.1: the positive drug estazolam was administered intragastrically at 2.5 mg/kg; and the solvent control group was gavaged with an equal volume of solvent. Behavior test was performed in each group 30 min after single administration. The experiments were required to be conducted between 8:00 am and […], and all animals entered the test laboratory on the previous day.
The behavioral test method and behavioral observation indexes were the same as those in 3.1.
(§1) Data was expressed as mean±standard (mean±SD) difference, and statistics of data differences were made by one-way analysis of variance (ANOVA) or nonparametric test, and differences between groups were determined by P<0.05.

[3] = system: SD rats; experiment: Vogel drinking conflict experiment in rats, single administration; assay type: in vivo; details: 30 min after single dose, punishment stage 3 min, n = 8
Method: 75 male SD rats, with the body weight of 180-220 g, were fed adaptively for 1 week, water deprived for 24 h for training period test. The animals screened to be qualified were randomly divided into 7 groups (a solvent control group, estazolam group, compound M2 group, compound II-3 group, compound II-4 group, compound II-5 group and compound II-10 group) according to their body weight, with 8 rats in each group. […] results of 3.1: the positive drug estazolam was administered intragastrically at 1.24 mg/kg; and the solvent control group was gavaged with an equal volume of solvent. The grouped animals were continued to be water deprived for 24 h and were given a single dose, and tested in a punishment experiment 30 min after the single dose.
The experiment was carried out in two stages. The first stage is a training stage, in which 24 h after water deprivation, animals were placed in an operation box separately, and were allowed to fully explore until they found the bottle mouth and started to lick water (with an intensity of electric shock being 0 mA), a counter automatically recorded the number of licks within 3 min, and the animals that licked water less than 300 times were eliminated.
Observation index: the number of water licks of rats in the punishment stage.
as §1

[4] = system: mice; details: 10 mg/kg continuously for 7 days; cited from earlier work
[5] = system: mice; details: Patent C; cited from earlier work
[6] = system: NA reuptake in rat brain synaptosomes; experiment: 3H-NA reuptake by rat brain synaptosomes; assay type: biochemical; details: 100 μM, positive control
From the text: At present, it is believed that absolute or relative deficiencies of the central monoamine neurotransmitters 5-hydroxytryptamine (5-HT), norepinephrine (NA) and dopamine (DA) are closely related to depression and anxiety.
Synaptosomes were separated using methods in literature to prepare brain synaptosomes. SD rats were rapidly decapitated with a small animal decapitator. After decapitation, brains were taken out quickly and precooled in an ice-water mixture, and the pia mater and vascular tissue were removed. Brain tissue was taken out. 10 times volume (ml/g) of 10 mM Tris HCl buffer (containing 0.32 M sucrose, pH 7.4) was added, an ultrasonic cell pulverizer was used for homogenization (maintaining at a low temperature), and the brain tissue was homogenized and centrifuged for 10 min (4° C., 1,000 g). After balanced centrifugation (1500 g, 10 min) at 4° C., precipitate was discarded, then supernatant was taken, and centrifugation (20000 g) was performed again for 30 min. The supernatant was discarded and the precipitate, i.e. crude extract of synaptic corpuscles, was retained. The precipitate was further suspended in 0.32 M cold sucrose solution and then carefully laid on 1.2 M and 0.8 M (10 ml each) cold sucrose gradient solutions which had been laid sequentially on the bottom of the tube, followed by balanced centrifugation (38000 g) at 4 °C for 60 min. A suspension band at the 0.8-1.2 M sucrose interface was carefully collected with a puncture needle, which was placed in 10 ml of 0.32 M cold sucrose solution and mixed well, and equilibrium centrifuged (20000 g) at 4 °C for 30 min. The precipitate was refined brain synaptosomes. […]
(§2) The percentage inhibition of isotope ligand binding by each compound was calculated according to the following equation: […]

[7] = system: DA reuptake in rat brain synaptosomes; experiment: 3H-DA reuptake by rat brain synaptosomes; assay type: biochemical; details: 100 μM, positive control
From the text: At present, it is believed that absolute or relative deficiencies of the central monoamine neurotransmitters 5-hydroxytryptamine (5-HT), norepinephrine (NA) and dopamine (DA) are closely related to depression and anxiety. This experiment was designed to evaluate, by the method of in vitro monoamine reuptake, the inhibitory effect of two samples of tested compound I-5 and compound M2 on reuptake of 5-HT, NA and DA in rat brain synaptosomes. The preparation of in vitro SD rat brain synaptosomes and isotopic tracer method were employed to investigate IC50 of inhibition of monoamine reuptake of DA, 5-HT and NA in two tested samples, in order to explore the possible mechanism of antidepressant and anxiolytic effects of compound I-5 and compound M2.
Synaptosomes were separated using methods in literature to prepare brain synaptosomes. SD rats were rapidly decapitated with a small animal decapitator. After decapitation, brains were taken out quickly and precooled in an ice-water mixture, and the pia mater and vascular tissue were removed. Brain tissue was taken out. 10 times volume (ml/g) of 10 mM Tris HCl buffer (containing 0.32 M sucrose, pH 7.4) was added, an ultrasonic cell pulverizer was used for homogenization (maintaining at a low temperature), and the brain tissue was homogenized and centrifuged for 10 min (4° C., 1,000 g). After balanced centrifugation (1500 g, 10 min) at 4° C., precipitate was discarded, then supernatant was taken, and centrifugation (20000 g) was performed again for 30 min. The supernatant was discarded and the precipitate, i.e. crude extract of synaptic corpuscles, was retained. […] The precipitate was suspended in a small amount of Kreb's buffer (NaCl 118 mM, KCl 4.7 mM, CaCl2) 2.5 mM, MgSO4 1.2 mM, KH2PO4 1.2 mM, NaHCO325 mM and Glucose 11.1 mM, pH 7.2-7.4), BCA method was used for protein quantification, and the operation steps were as described in the description. […]
as §2

[8] = system: pyramidal neurons in prefrontal PrL brain area; experiment: Brain slice electrophysiology, sEPSC of mPFC pyramidal neurons; assay type: cell-based, mice; details: antagonist at working concentration 10 μM
From the text: 2) Brain Slice Electrophysiological Experiment: For Detecting Effect of Compound M2 on mPFC Excitatory Synaptic Transmission • Animal: neonatal mice C57 BL/6J (20-30 days). • Instrument: vibratome (Leica), brain slice electrophysiological system (Axon). • Brain slice electrophysiological experiment method • SEPSC experiment method: Neonatal C57 mice were anesthetized and then perfused with artificial cerebrospinal fluid (ACSF). After decapitation, brain tissue was taken quickly and sliced by vibratome, with a thickness of a brain slice being 300 μm. After the brain slices were incubated at 28 °C for 1 h, whole-cell recordings of mPFC pyramidal neurons were made using a voltage clamp (−70 mV) through a brain slice electrophysiological system. The baseline recording time was 6 min, and then a drug to be tested was added through a perfusion system (the drug was dissolved using ACSF), and the recording time after adding the drug was 6-10 min. Recorded data was analyzed using Minianalysis software, and effects of the drug to be tested on sEPSC frequency and amplitude of medial prefrontal pyramidal neurons in C57 mice were compared.
All data analysis was done using spss data processing software, and data was expressed by Mean±s.e.m. One-way ANOVA was used to analyze the effect of compound M2 and the effect of compound M2 under the action of dopamine receptor antagonists on sEPSC current: and paired t test was used to analyze sEPSC experimental results. * was marked when p<0.05.
During the experiment, 10 μM Bicuculine was added to the solution to block GABA receptor, so as to record sEPSC of pyramidal neurons. The experiment investigated effects of different concentrations of compound M2 on spontaneous excitatory postsynaptic […] (sEPSC) of pyramidal neurons in prefrontal PrL brain area, as shown in FIG. 2.

[9] = comparative study (Table 13), 2.5 mg/kg i.g.
[10] = dosage exploration study (Table 12), 2.5 mg/kg i.g.
[11] = comparative study (Table 13), 20 mg/kg i.g.

CNCCC(Oc1ccc(C(F)(F)F)cc1)c1ccccc1 (centres unmarked) [fluoxetine, Fluoxetine]
antidepressant-like effect [1]: no antidepressant-like effect

CN[C@]1(c2ccccc2Cl)CCCCC1=O [esketamine, Esketamine]
antidepressant-like effect [1]: had antidepressant-like effect

Clc1ccc2c(c1)C(c1ccccc1)=NCc1nncn1-2 [Estazolam]
OE % [2, 9]: 69.60 ± 15.12 %
OT % [2, 9]: 73.46 ± 20.29 %
OE % [2, 10]: 42.78 ± 15.27 %
OT % [2, 10]: 50.12 ± 12.76 %
Number of times of drinking water ([3]; 1.24 mg/kg i.g.): 540.41/kg2.25*

CC(C)CNC(=O)/C=C/c1cc(Cl)c2c(c1)OCO2 [Compound II-4]
reserpine-induced body temperature decrease and akinesia in mice, degree of eye closure [4]: significantly antagonizing
OE % [2, 11]: 46.79 ± 9.31 %
OT % [2, 11]: 53.45 ± 8.33 %
anxiolytic activity in elevated plus maze vs solvent control group ([2]; comparative study, single intragastric administration of 20 mg/kg): significant anxiolytic activity
effective anxiolytic dosage in mice elevated plus maze experiment [5]: 10 mg/kg
Number of times of drinking water ([3]; 10 mg/kg i.g.): 387.07 ± 57.31

CNCCCN1c2ccccc2CCc2ccccc21 [Desipramine hydrochloride]
inhibition of 3H-NA reuptake by synaptosomes [6]: 100%

Br.NCCc1cc(O)c(O)cc1O [6-Hydroxydopamine hydrobromide]
inhibition of 3H-DA reuptake by synaptosomes [7]: 100%

CCN1CCCC1CNC(=O)c1cc(S(N)(=O)=O)ccc1OC (centres unmarked) [Sulpride]
blocking of the enhancement effect of 150 μM compound M2 on sEPSC distribution frequency [8]: can block the enhancement effect; also recorded: significantly block

CC(C)CNC(=O)/C=C/c1cc(I)c2c(c1)OCO2 [Compound II-3]
OE % [2, 11]: 41.04 ± 9.52 %
OT % [2, 11]: 42.99 ± 11.82 %
effective anxiolytic dosage in mice elevated plus maze experiment [5]: 10 mg/kg
Number of times of drinking water ([3]; 10 mg/kg i.g.): 363.96 ± 145.26
